The values that follow come from patent US10487116B2, “Immunotherapy against several tumors, such as lung cancer, including NSCLC” (IMMATICS BIOTECHNOLOGIES GMBH, priority 2013, dated 2019).

Data set [1] concerns prostate cancer cells. Particulars: Beckers et al., 2007; cited from earlier work.
For data set [2], the system named is lung cancer cells NCI-H460. Particulars: Wang et al., 2009a; cited from earlier work.
Data set [3] concerns colon carcinoma cells HCT-8. Particulars: Wang et al., 2009a; cited from earlier work.
For data set [4], the system named is colon carcinoma cells HCT-15. The settings on record: Wang et al., 2009a; cited from earlier work.
In data set [5] the target is T1, HLA-DR2 (Homo sapiens, UniProt P01903+P01911).
T1 construct: purchased ProImmune
T1 sequence (P01903 26-254): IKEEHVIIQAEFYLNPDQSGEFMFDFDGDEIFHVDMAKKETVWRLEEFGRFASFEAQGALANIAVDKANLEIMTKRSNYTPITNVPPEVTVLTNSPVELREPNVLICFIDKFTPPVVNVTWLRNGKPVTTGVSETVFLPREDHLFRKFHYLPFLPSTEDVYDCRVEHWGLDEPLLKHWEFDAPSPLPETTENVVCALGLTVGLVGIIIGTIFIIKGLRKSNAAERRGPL
T1 sequence (P01911 30-227 limits assumed): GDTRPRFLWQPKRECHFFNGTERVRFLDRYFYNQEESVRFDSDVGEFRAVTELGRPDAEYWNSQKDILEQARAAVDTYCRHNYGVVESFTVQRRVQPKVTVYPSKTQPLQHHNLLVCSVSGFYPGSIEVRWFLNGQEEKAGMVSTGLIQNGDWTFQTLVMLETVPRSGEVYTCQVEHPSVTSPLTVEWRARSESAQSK
As to the kind of experiment: ProImmune REVEAL MHC-peptide binding assay. Particulars: compared to the positive control peptide, time 0. On the procedure: (§1) The ProImmune REVEAL® MHC-peptide binding assay determines the ability of each candidate peptide to bind to the selected HLA class II haplotype and stabilize the HLA-peptide complex. Thereby the candidate peptides are assembled in vitro with a particular HLA class II protein. The level of peptide incorporation into HLA molecules is measured by presence or absence of the native conformation of the assembled HLA-peptide complex at time 0 after completed refolding procedure (so called on-rate).
(§2) The binding capacity of candidate peptide to a particular HLA molecule is compared to the one with known very strong binding properties (positive control) resulting in the corresponding REVEAL® […] binding score. The positive control peptide is selected and provided by ProImmune based on their experience individually for each HLA haplotype.

For data set [6], the system named is HLA-DR1. In words: ProImmune REVEAL MHC-peptide binding assay. Set-up: species or system human. The settings on record: compared to the positive control peptide, time 0. On the procedure: as §1, §2
Data set [7] concerns HLA-DR3. As to the kind of experiment: ProImmune REVEAL MHC-peptide binding assay. Set-up: species or system human. On the procedure:
as §1, §2

In data set [8] the test system is HLA-DR4. In words: ProImmune REVEAL MHC-peptide binding assay. Particulars: compared to the positive control peptide, time 0. Also on record: species or system human. On the procedure: as §1, §2
Data set [9] relates to HLA-DR5. As to the kind of experiment: ProImmune REVEAL MHC-peptide binding assay. Also on record: species or system human. Particulars: compared to the positive control peptide, time 0. On the procedure:
as §1, §2

Data set [10] concerns HLA-DR6. In words: ProImmune REVEAL MHC-peptide binding assay. Set-up: species or system human. On the procedure: as §1, §2
Data set [11] has as its system HLA-DR7. As to the kind of experiment: ProImmune REVEAL MHC-peptide binding assay. Particulars: compared to the positive control peptide, time 0. Set-up: species or system human. On the procedure: as §1, §2
The subject of data set [12] is HLA-DR haplotypes. As to the kind of experiment: ProImmune REVEAL MHC-peptide binding assay, all investigated haplotypes. Also on record: species or system human. Particulars: of 7 investigated HLA haplotypes.
Description: The 7 investigated HLA-DR haplotypes are selected according to their frequencies in HLA-A*02 and HLA-A*24 positive North Americans population (Table 7.1 and 7.2)
as §1, §2

In data set [13] the test system is HLA-DR haplotypes. As to the kind of experiment: Stability of the formed HLA-peptide complexes (REVEAL assay, 24 h at 37° C.). It is filed as binding, human. The settings on record: after 24 h at 37° C.; of 6 investigated HLA-peptide complexes. On the procedure: Besides the affinity of a peptide to a particular HLA molecule, the enduring stability of the formed HLA-peptide complex is crucial for the occurrence of an immune response. Accordingly presence of the formed HLA-peptide complex is measured after its incubation for 24 h at 37° C. Consequently the stability of the formed MHC-peptide complex is calculated as a ration of the binding scores at 24 h and the binding scores which are received right after the refolding (accordingly at time 0) in percent.

Data set [14] relates to CD4 T-cells. In words: Intracellular cytokine staining (ICS) of CD4 T-cells in blood samples of vaccinated patients. It is filed as in vivo, human. Particulars: vaccination with IMA950 peptides, 16 patients. On the procedure: A conclusion on the immugenicity of a peptide based on its binding capacity to a HLA molecule can be made by comparing the binding score of this peptide to the one with known immunogenicity. Therefore, five well investigated peptides with determined immunogenicity were selected for this comparison. The immunogenicity of these peptides was determined ex vivo in blood samples of vaccinated patients using intracellular cytokine staining (ICS) CD4 T-cells.
In principle, ICS assays analyze the quality of specific T cells in terms of effector functions. Therefore, the peripheral mononuclear cells (PBMCs) were cultivated in vitro and subsequently restimulated by the peptide of interest, a reference peptide and a negative control (here MOCK).
Following the restimulated cells were stained for FN-gamma, TNF-alpha, IL-2 and IL-10 production, as well as expression of the co-stimulatory molecule CD154. The counting of affected cells was performed on a flow cytometer (FIG. 7).

Data set [15] addresses HLA-A*0201 (Homo sapiens, UniProt P04439, D140Y/D185E/D98H/E176V/E277Q/G131W/G231S/I119V/I121R/I166T/I218V/L300P/L318F/N151K/N90K/P208A/P217A/Q86G/Q94H/R138H/R169H/T345S). In words: UV-ligand exchange with ELISA of stabilized MHC complexes. It is filed as binding. The settings on record: class symbol. From the text: Candidate peptides for the vaccines according to the present invention were further tested for immunogenicity by in vitro priming assays. The individual peptide-MHC complexes required for these assays were produced by UV-ligand exchange, where a UV-sensitive peptide is cleaved upon UV-irradiation, and exchanged with the peptide of interest as analyzed. Only peptide candidates that can effectively bind and stabilize the peptide-receptive MHC molecules prevent dissociation of the MHC complexes. To determine the yield of the exchange reaction, an ELISA was performed based on the detection of the light chain (β2m) of stabilized MHC complexes. The assay was performed as generally described in Rodenko et al. (Rodenko B, Toebes M, Hadrup S R, van Esch W J, Molenaar A M, Schumacher T N, Ovaa H. Generation of peptide-MHC class I complexes through UV-mediated ligand exchange. Nat Protoc. 2006; 1(3):1120-32.).
96 well MAXISorp plates (NUNC) were coated over night with 2 ug/ml streptavidin in PBS at room temperature, washed 4× and blocked for 30 min at 37° C. in 2% BSA containing blocking buffer. Refolded HLA-A*0201/MLA-001 monomers served as standards, covering the range of 8-500 ng/ml. Peptide-MHC monomers of the UV-exchange reaction were diluted 100 fold in blocking buffer. Samples were incubated for 1 h at 37° C., washed four times, incubated with 2 ug/ml HRP conjugated anti-β2m for 1 h at 37° C., washed again and detected with TMB solution that is stopped with […]. Absorption was measured at 450 nm.

Take `CO[C@H]1CCCC[C@@H](c2ccccc2)OC(=O)[C@@H](C)[C@@]2(O)O[C@H]([C@@H](C)[C@H](O)[C@H]2OC)[C@@H](C)/C=C/[C@H]1OC` [soraphen A]: in [1], the fatty acid oxidation result is listed as “enhances fatty acid oxidation” and the lipogenesis entry was “blocks lipogenesis”.
On to `CCCCCCCCCCCCCCOc1ccc(C(=O)O)o1` [TOFA, 5-tetradecyloxy-2-furoic acid], for which the cytotoxicity entry in data set [2], in [3] and in [4] was “cytotoxic” each time.
Turning to “INNYTPDMNREDVDYAIR (listed as Homo sapiens) [SEQ ID NO 76]”, the “Relative Binding Score HLA-DR2” value in data set [5] worked out at 2.43. For the same compound, the “Relative Binding Score HLA-DR1” value in data set [6] came out at 0.04. In [7], the “binding to HLA-DR3” value is “did not bind”. Moreover, the “Relative Binding Score HLA-DR4” value in [8] was 0.74. Further, the “Relative Binding Score HLA-DR5” value in data set [9] was 0.04. The “binding to HLA-DR6” value in data set [10] is reported as “did not bind”. For the same compound, the “Relative Binding Score HLA-DR7” value in data set [11] is reported as 0. The “HLA haplotypes with which a complex is formed” value in data set [12] is recorded as 4. In data set [13], this compound showed an HLA-peptide complexes stable of 2.
As to “TNGVIHVVDKLLYPADT (listed as Homo sapiens) [SEQ ID NO 77]”, the “Relative Binding Score HLA-DR2” value in [5] amounted to 0.68. Besides, the “Relative Binding Score HLA-DR1” value in data set [6] came out at 0.24. Also, the “binding to HLA-DR3” value in data set [7] is recorded as “did not bind”. In addition, in [8], the “Relative Binding Score HLA-DR4” value is 0.02. The “Relative Binding Score HLA-DR5” value in [9] was found to be 0.08. The “binding to HLA-DR6” value in data set [10] is reported as “did not bind”. Besides, the “Relative Binding Score HLA-DR7” value in data set [11] is 0.47. For the same compound, the “HLA haplotypes with which a complex is formed” value in data set [12] was 5. The compound further came in with an HLA-peptide complexes stable in [13] of 3.
Regarding “BIR-002: class II peptide with known immunogenicity, IMA950 peptide (TLGEFLKLDRERAKN) [reference compound]”, the “Relative Binding Score HLA-DR2” value in [5] was 0.05. In data set [6], the “Relative Binding Score HLA-DR1” value stood at 40.06. The “Relative Binding Score HLA-DR4” value in data set [8] amounted to 6.12. For the same compound, the “Relative Binding Score HLA-DR5” value in data set [9] came to 103.9. In addition, in data set [11], the “Relative Binding Score HLA-DR7” value is 0.27. For the same compound, the immune response in data set [14] turned out to be 100%.
With “SLYKGLLSV (listed as Homo sapiens) [SEQ ID NO 56]”, in [15], the Exchange yield result was “++ (20%-49% = ++)”.
On the same count and under the same terms, the result for “VLSVVEVTL (listed as Homo sapiens) [SEQ ID NO 10]” reads “++++ (>70 = ++++)”; that for “ALFPHLLQPV (listed as Homo sapiens) [SEQ ID NO 43]”, “+++ (50%-70%, +++)”.
Same read-out and setting: the result for “FLIPIYHQV (listed as Homo sapiens) [SEQ ID NO 22]” reads “+++ (50%-70%, +++)”.
For “SLHFLILYV (listed as Homo sapiens) [SEQ ID NO 38]”, the Exchange yield entry in data set [15] is recorded as “+ (<20% = +)”.
Same read-out and setting: the entry for “KIQEILTQV (listed as Homo sapiens) [SEQ ID NO 66]” is “++ (20%-49% = ++)”; for “AMSSKFFLV (listed as Homo sapiens) [SEQ ID NO 69]” it is “++ (20%-49% = ++)”; for “VLLPVEVATHYL (listed as Homo sapiens) [SEQ ID NO 11]” it is “+++ (50%-70%, +++)”.
On the same count and under the same terms, the entry for “ALWEKNTHL (listed as Homo sapiens) [SEQ ID NO 82]” is “+++ (50%-70%, +++)”; for “KIVDFSYSV (listed as Homo sapiens) [SEQ ID NO 85]” it is “+++ (50%-70%, +++)”.
The same measure, in the same setting: the result for “KLVEFDFLGA (listed as Homo sapiens) [SEQ ID NO 54]” reads “+++ (50%-70%, +++)”; that for “AILDTLYEV (listed as Homo sapiens) [SEQ ID NO 21]”, “++ (20%-49% = ++)”; that for “KIYNEFISV (listed as Homo sapiens) [SEQ ID NO 30]”, “++ (20%-49% = ++)”.
On to “MET-005: class II peptide with known immunogenicity, IMA950 peptide (TFSYVDPVITSISPKYG) [reference compound]”, for which, in data set [5], the “Relative Binding Score HLA-DR2” value was 0.28. Moreover, in data set [6], the “Relative Binding Score HLA-DR1” value turned out to be 0.87. The “Relative Binding Score HLA-DR4” value in [8] was 5.89. Besides, the “Relative Binding Score HLA-DR5” value in data set [9] is given as 0.12. In data set [11], the “Relative Binding Score HLA-DR7” value was found to be 3.69. Also, in [14], the immune response was 100%.
In the case of “FQYDHEAFL (listed as Homo sapiens) [SEQ ID NO 14]”, the Exchange yield entry in [15] is “++++ (>70 = ++++)”.
On the same count and under the same terms, the entry for “KIQEMQHFL (listed as Homo sapiens) [SEQ ID NO 2]” is “+++ (50%-70%, +++)”; for “KLLEYIEEI (listed as Homo sapiens) [SEQ ID NO 71]” it is “++ (20%-49% = ++)”.
On the same count and under the same terms, the entry for “ALASVIKEL (listed as Homo sapiens) [SEQ ID NO 89]” is “+++ (50%-70%, +++)”.
